This is an account of results in US8889377B2, “GPCR comprising an IC2 insertion” (ConfometRx, Inc., priority 2010, dated 2014).

This test has as its system mGluR5 and Rock10 (mGluR5-T4 lysozyme fusion protein of FIG. 3). The test can be described thus: 3H-MPEP ligand binding in membranes of transfected HEK293 cells. More on the design: species or system human. Particulars: HEK293 cell membranes; ^3H-MPEP radioligand; wild-type mGluR5 vs fusion protein Rock10 (FIG. 6).

Method: HEK293 cells were cultured on plastic dishes at 37° C. with 5% CO2 in Dulbecco's modified Eagle's medium (Cellgro) with 5% fetal bovine serum. For an individual expression experiment, cells at confluency were split, and approximately 100,000 cells were used to seed glass cover slips in the same medium. After 2 d, cells are transfected with the addition of 1 μg of a given pCDNA3-receptor plasmid and 3 μl of Fugene 6 reagent (Roche). 48 h after transfection, cells were harvested and membranes prepared for ligand binding analysis. ^3H-MPEP (a negative allosteric modulator that binds to the transmembrane domains of mGluR5) was used to detect functional mGluR5 in HEK293 cell membranes (see FIG. 6).

Take `Cc1cccc(C#Cc2ccccc2)n1` [MPEP]: the “affinity of MPEP for mGluR5 compared with Rock10” value is recorded as “same affinity for mGluR5 as Rock10”.
